# Assay results as given in paper PMC4645630 (The Journal of Biological Chemistry, 2015).
# Assays:
# GCGR with RAMP2 [1] = biological target: T1, GCGR with RAMP2 (Homo sapiens, UniProt O60895+P47871); experiment: Whole cell competition binding with [125I]glucagon, GCGR with RAMP2; settings: whole cells, [125I]glucagon 0.1 nM, 16 h at 4 °C
# T1 construct: expressed in transfected cells; host or cells: HEK-293 (293T)
# GCGR [2] = biological target: T2, GCGR (Homo sapiens, UniProt P47871); experiment: cAMP accumulation assay, HEK-293 cells expressing GCGR with vector control; type: cell-based; set-up: expressed in transfected cells; host or cells: HEK-293 (293T)
# Description: (§1) Data were analyzed using Prism version 6.0e (GraphPad Software, San Diego, CA). EC50 and Emax values were obtained through fitting of a three-parameter logistic equation. Relative efficacy (log τ) and equilibrium dissociation constants (log KA) were generated through use of an operational model for partial agonism ([23]). […] Statistical differences were analyzed before data were normalized, using a Student's test or one-way analysis of variance (ANOVA) with Bonferroni's or Dunnett's multiple comparisons as appropriate, and p < 0.05 was considered significant.
# GCGR [3] = biological target: T2, GCGR; experiment: Yeast growth reporter assay, GPA1/Gαs chimera strain expressing GCGR with vector; type: cell-based; set-up: expressed in transfected cells; host or cells: HEK-293 (293T)
# Description: (§2) General yeast procedures were performed as described previously ([17], [18]). […] Mammalian GPCRs and RAMPs were introduced to the yeast strains under the control of the GAPDH promoter using plasmids containing either ura3 (p426-GPD) or leu2 (p425-GPD). Plasmids were transformed in a 1:1 ratio to enable equal expression levels of both the RAMP and receptors. Transformation was achieved using the lithium acetate/single-stranded DNA/polyethylene glycol method as described previously ([20]). Positive transformants were selected and maintained on medium lacking uracil and leucine. Receptor signaling was measured using the yeast growth assay ([21]) adapted as described previously ([17]). Initially, cell growth was performed in SD−URA−LEU medium at 30 °C to select for only those cells expressing both plasmids. […] Fluorescence was measured on a TECAN Infinite M200 microplate reader (TECAN Ultra Evolution, Reading, UK).
# (§3) Data were analyzed using Prism version 6.0e (GraphPad Software, San Diego, CA). […] Statistical differences were analyzed before data were normalized, using a Student's test or one-way analysis of variance (ANOVA) with Bonferroni's or Dunnett's multiple comparisons as appropriate, and p < 0.05 was considered significant.
# GCGR [4] = biological target: T2, GCGR; experiment: Yeast growth reporter assay, GPA1/Gαi chimera strain expressing GCGR with vector; type: cell-based; set-up: expressed in transfected cells; host or cells: HEK-293 (293T)
# Description: as §2, §3
# GCGR [5] = biological target: T2, GCGR; experiment: Whole cell competition binding with [125I]glucagon, GCGR without RAMP2; set-up: expressed in transfected cells; settings: no RAMP2
# Description: Cells were seeded into 6-well plates and grown to 80% confluence before transfection with 1.5 μg of plasmid DNA and incubated for a further 24 h. Medium was then replaced with fresh DMEM, and cells were transferred onto a 96-well plate coated with poly-D-lysine and incubated for 24 h to achieve confluence prior to assay. […] For the assay, cells were washed in assay buffer, 0.1 nM of radioligand and various concentrations of the peptides were added, and the plate was incubated for 16 h at 4 °C. Following washing with ice-cold assay buffer, 100 μl of NaOH (0.1 M) was added to each well, and the plate was incubated for 5 min on ice. Cells were removed, and the plate was washed with 100 μl of HCl (0.1 M). Radioactivity was determined in 2 ml of Safefluor scintillant (PerkinElmer Life Sciences) using a liquid scintillation counter with a count time of 3 min/sample. Values were corrected for nonspecific binding as determined by the amount of radioligand detected bound to cells not expressing GCGR.
# GCGR with RAMP2 [6] = biological target: T1, GCGR with RAMP2; experiment: Yeast growth reporter assay, GPA1/Gαs chimera strain expressing GCGR and RAMP2; type: cell-based; settings: Table 4, yeast GPA1/Gαs
# Description: (§4) General yeast procedures were performed as described previously ([17], [18]). […] Mammalian GPCRs and RAMPs were introduced to the yeast strains under the control of the GAPDH promoter using plasmids containing either ura3 (p426-GPD) or leu2 (p425-GPD). Plasmids were transformed in a 1:1 ratio to enable equal expression levels of both the RAMP and receptors. Transformation was achieved using the lithium acetate/single-stranded DNA/polyethylene glycol method as described previously ([20]). Positive transformants were selected and maintained on medium lacking uracil and leucine. Receptor signaling was measured using the yeast growth assay ([21]) adapted as described previously ([17]). Initially, cell growth was performed in SD−URA−LEU medium at 30 °C to select for only those cells expressing both plasmids. Cells were then cultured to remove basal activity in SD−URA−LEU−HIS medium overnight at 30 °C and assayed using fluorescein-di-β-D-glucopyranoside-supplemented medium in the presence of different concentrations of ligand (0.01 nM to 100 mM). Fluorescence was measured on a TECAN Infinite M200 microplate reader (TECAN Ultra Evolution, Reading, UK).
# as §1
# GCGR with RAMP2 [7] = biological target: T1, GCGR with RAMP2; experiment: cAMP accumulation assay, HEK-293 cells co-expressing GCGR and RAMP2; type: cell-based; settings: Table 3, cAMP
# Description: as §1
# GCGR with RAMP2 [8] = biological target: T1, GCGR with RAMP2; experiment: Yeast growth reporter assay, GPA1/Gαi chimera strain expressing GCGR and RAMP2; type: cell-based; settings: Table 5, yeast GPA1/Gαi
# Description: as §4, §1
# [9] = GCGR + RAMP2, mean ± S.E., five repeats
# [10] = RAMP2, operational model relative to glucagon
# [11] = RAMP2, percentage of glucagon response without RAMP co-expression
# T1 sequence (P47871 26-477): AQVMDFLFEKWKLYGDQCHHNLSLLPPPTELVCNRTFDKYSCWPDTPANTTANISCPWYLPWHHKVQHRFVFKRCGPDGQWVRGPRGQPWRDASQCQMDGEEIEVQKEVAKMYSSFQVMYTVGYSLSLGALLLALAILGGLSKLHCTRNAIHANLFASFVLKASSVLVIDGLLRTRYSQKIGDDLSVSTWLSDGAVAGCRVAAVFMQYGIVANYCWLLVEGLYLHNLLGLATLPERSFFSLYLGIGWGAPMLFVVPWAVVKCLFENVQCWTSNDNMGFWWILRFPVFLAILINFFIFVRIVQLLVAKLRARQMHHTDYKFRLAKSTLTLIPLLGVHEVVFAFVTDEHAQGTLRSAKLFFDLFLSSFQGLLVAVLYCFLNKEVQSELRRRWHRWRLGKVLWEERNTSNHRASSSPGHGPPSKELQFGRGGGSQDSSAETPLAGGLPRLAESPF
# T1 sequence (O60895 43-175 partner): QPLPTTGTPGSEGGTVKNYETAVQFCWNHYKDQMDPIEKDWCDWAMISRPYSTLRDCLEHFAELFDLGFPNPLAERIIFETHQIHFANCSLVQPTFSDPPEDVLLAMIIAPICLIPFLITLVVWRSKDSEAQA
# T2 sequence (P47871 26-477): as the sequence (P47871 26-477) above
compound,measurement,setting,value
CCCCCCCCCCCCCCCC(=O)N[C@@H](CCC(=O)NCCCC[C@H](NC(=O)[C@H](C)NC(=O)[C@H](C)NC(=O)[C@H](CCC(N)=O)NC(=O)CNC(=O)[C@H](CCC(=O)O)NC(=O)[C@H](CC(C)C)NC(=O)[C@H](Cc1ccc(O)cc1)NC(=O)[C@H](CO)NC(=O)[C@H](CO)NC(=O)[C@@H](NC(=O)[C@H](CC(=O)O)NC(=O)[C@H](CO)NC(=O)[C@@H](NC(=O)[C@H](Cc1ccccc1)NC(=O)[C@@H](NC(=O)CNC(=O)[C@H](CCC(=O)O)NC(=O)[C@H](C)NC(=O)[C@@H](N)Cc1c[nH]cn1)[C@@H](C)O)[C@@H](C)O)C(C)C)C(=O)N[C@@H](CCC(=O)O)C(=O)N[C@@H](Cc1ccccc1)C(=O)N[C@H](C(=O)N[C@@H](C)C(=O)N[C@@H](Cc1c[nH]c2ccccc12)C(=O)N[C@@H](CC(C)C)C(=O)N[C@H](C(=O)N[C@@H](CCCNC(=N)N)C(=O)NCC(=O)N[C@@H](CCCNC(=N)N)C(=O)NCC(=O)O)C(C)C)[C@@H](C)CC)C(=O)O [Liraglutide],binding to the GCGR upon RAMP2 co-transfection,GCGR with RAMP2 [1],failed to bind
same,EC50,"GCGR [2]; Table 3, cAMP, HEK-293, GCGR + vector, mean ± S.E., five repeats, SEM",10 nM
same,Emax,GCGR [3],80.1 ± 7.5%
same,EC50,"GCGR [3]; Table 4, yeast GPA1/Gαs, GCGR + vector, mean ± S.E., five repeats, SEM",3160 nM
same,Emax,GCGR [4],84 ± 9.4%
same,EC50,"GCGR [4]; Table 5, yeast GPA1/Gαi, GCGR + vector, mean ± S.E., five repeats, SEM",20 nM
same,affinity for the GCGR relative to the native peptide (glucagon),GCGR [5]; whole cell competition binding,higher affinity
same,binding to the GCGR in competition with glucagon,"GCGR [5]; whole cells, [125I]glucagon 0.1 nM, 16 h at 4 °C",bound to the GCGR
same,pEC50,GCGR with RAMP2 [6]; [9],N.R
same,log τ,GCGR with RAMP2 [6]; [10],N.R
same,pKA,GCGR with RAMP2 [6]; [10],N.R
same,Emax,GCGR with RAMP2 [6]; [11],N.R
same,log τ,"GCGR with RAMP2 [7]; GCGR + RAMP2, coupling efficiency, operational model relative to glucagon",N.R
same,pKA,"GCGR with RAMP2 [7]; GCGR + RAMP2, operational model for partial agonism relative to glucagon",N.R
same,Emax,"GCGR with RAMP2 [7]; GCGR + RAMP2, percentage of glucagon response without RAMP co-transfection",N.R
same,pEC50,"GCGR with RAMP2 [7]; HEK-293, GCGR + RAMP2, mean ± S.E., five repeats",N.R
same,pEC50,GCGR with RAMP2 [8]; [9],N.R
same,log τ,GCGR with RAMP2 [8]; [10],N.R
same,pKA,GCGR with RAMP2 [8]; [10],N.R
same,Emax,GCGR with RAMP2 [8]; [11],N.R
des-His^1-[Glu^9]glucagon(1–29) amide,effect of GCGR antagonist on GLP-1 and liraglutide signaling through the GCGR,"GCGR [2]; cAMP, HEK-293 cells with GCGR",inhibited
